Consider one substance from patent publication US20180169030A1, “DRUG CARRIER AND METHOD OF FABRICATING THE SAME” (priority 2016, published 2018).

This series concerns Hepatoma cells. Conditions: 75 ppm boron-10. The method, then: The drug carrier prepared in the above embodiments applied to the boron neutron capture therapy for cells was tested. The test method is described in detail below. Referring to FIG. 8, Tsing Hua Open-pool Reactor (THOR) 200 was used. An acrylic plate 204 was used as a carrier of 96-well plate 210. Hepatoma cells 206 were placed in the 96-well plate. Thermal neutrons 208 were used to irradiate the 96-well plate 210. An acrylic cube 202 was placed behind the carrier to slow down the thermal neutrons 208, so as to shorten the irradiation time.
Group I represents culture medium. Group J represents a boric acid solution containing 75 ppm of boron-10. Group K represents the drug carrier covering boric acid containing 75 ppm of boron-10. Group L represents the drug carrier without covering boric acid. The vertical axis is cell number percentage (%). The thermal neutron irradiation time was 27.67 minutes. After the thermal neutron irradiation, changes in cell numbers of each group were tested using the cell toxicity analysis kit (Wst-1 assay) after 24 hours.

boric acid: the “part of mortality rate caused by toxicity of boric acid / by drug carrier (not by irradiation)” value was 40%. The “part of mortality rate caused by irradiation of thermal neutron” value (irradiation time 27.67 minutes) came to 15%. The “mortality rate after irradiation of thermal neutron” value (irradiation time 27.67 minutes, Wst-1 after 24 hours) is reported as 55%.
